Experiment [1] relates to H1975 Cells (NSCLC, non-small cell lung cancer). The experiment can be described thus: In vitro cellular inhibitory activity, XTT method. Type of experiment: cell-based. The following applies: Homo sapiens, NCI-H1975, 72 hours, read-out: in vitro cellular inhibitory activities on H1975 IC50. The method, then:
(§1) In vitro cellular inhibitory activity of the present compounds
(§2) 1. Formulating the agents and the compounds
(§3) 2) Formulating the XTT working liquor: […]
(§4) The mixture was filtered, packaged separately, and used immediately or within one week. It is necessary for all of the processes to be kept in darkness.
(§5) 3) Formulating test compounds
(§6) Formulating a stock solution of test compound: […]
(§7) The compound powder was dissolved into DMSO until a concentration of 10 mM reached.
(§8) Formulating gradient dilute solutions of test compound: […]
(§9) First, the 10 mM stock solution of test compound was diluted with DMSO in a 4-fold successive gradient for 10 concentrations. 2 μL DMSO-diluted compound was added to 998 μL of the culture medium containing 10% FBS. Therefore, the maximum concentration of the compound is 20 μM, the concentration of DMSO is 0.2%, and there are 10 concentration gradients in total.
(§10) 1) Preparing the cell suspension
(§11) The culture medium was removed from the culture bottle. The cells were rinsed twice with PBS. The pancreatic enzyme was added to digest cells. The digested cells were collected by centrifuge. The cells were resuspended with a culture medium containing 10% fetal calf serum, counted and adjusted to an appropriate concentration (the cell viability should be over 90%). The cell concentration was 5×10^4/ml.
(§12) 2) The cell suspension was added to the 96-well plate, 100 μL per well.
(§13) 3) The plate was placed in the incubator and incubated at 37° C. under 5% CO2 overnight.
(§14) Drugs were added to the cell culture plate. The plate was placed in the incubator and incubated at 37° C. under 5% CO2 for 72 hours.
(§15) 5. Testing the cell viability with the XTT method
(§16) The XTT working solution was added to the plate. The plate was placed in the incubator and incubated at 37° C. under 5% CO2 for 2 hr. Then the plate was placed in a microplate reader to read the absorbance at 450 nm.
(§17) 2) Data were input into GraphPad Prism 5.0 to plot a curve and obtain IC50.
A general note: Tetrazolium assays rely on reduction of a dye to a coloured formazan, in cell work by metabolically active cells.

Experiment [2] has as its system SKOV3 cells (Ovarian carcinoma). The experiment can be described thus: In vitro cellular inhibitory activity, XTT method. Type of experiment: cell-based. The following applies: Homo sapiens, SK-OV-3, 72 hours, read-out: in vitro cellular inhibitory activities on SKOV3 IC50. The method, then: as §1, §2, §3, §4, §5, §6, §7, §8, §9, §10, §11, §12, §13, §14, §15, §16, §17

For experiment [3], the target named is T1, HER2: human epidermal growth factor receptor 2 (Homo sapiens, UniProt P04626).
T1 construct: purchased Carna
The experiment can be described thus: In vitro enzyme inhibitory activity (Caliper, FAM labeled peptide). In kind it is biochemical. The settings on record: HER2 kinase, 28° C., 1 h. The method, then: (§18) In vitro enzyme inhibitory activity of the present compounds
HER2: human epidermal growth factor receptor 2 (Carna);
(§19) 1. Formulating the agents to be used in the assay
(§20) (3) Stop buffer (100 mM HEPES, pH 7.5, 0.015% Brij-35, 0.2% Coating Reagent #3, 50 mM EDTA);
(§21) (6) 5-fold compound solutions (using 100% DMSO to formulate 50-fold compound solutions having different concentration gradients, and diluting with water by 10 times to obtain 5-fold compound solutions having different concentration gradients);
(§22) 2. Adding 5 μL of a 5-fold compound solution to a 384-well plate;
(§23) 3. Adding 10 μL of a 2.5-fold kinase solution to incubate for 10 min;
(§24) 4. Then adding 10 μL of a 2.5-fold peptide solution, and reacting at 28° C. for 1 h; and
(§25) 5. Finally, adding 25 μL of stop buffer to terminate the reaction, and reading the data with Caliper.
(§26) 6. Curve fitting to obtain an IC50 value. The calculated inhibition ratio (%)=(the maximum conversion rate−the conversion rate)/(the maximum conversion rate−the minimum conversion rate)×100
(§27) The curve fitting was conducted with the Xlfit software to obtain IC50 values.

The target of experiment [4] is T2, HER4: human epidermal growth factor receptor 4 (Homo sapiens, UniProt Q15303).
T2 construct: purchased Carna
The experiment is described as above. In kind it is biochemical. The following applies: HER4 kinase, 28° C., 1 h. The method, then:
as §18
HER4: human epidermal growth factor receptor 4 (Carna).
as §19, §20, §21, §22, §23, §24, §25, §26, §27

For experiment [5], the target named is T3, EGFR: human epidermal growth factor receptor (Homo sapiens, UniProt P00533).
T3 construct: purchased Carna
The experiment is described as above. The following applies: EGFR kinase, 28° C., 1 h. Type of experiment: biochemical. The method, then:
as §18
EGFR: human epidermal growth factor receptor (Carna);
as §19, §20, §21, §22, §23, §24, §25, §26, §27

Experiment [6] deals with A431 cells (Epidermoid carcinoma). The experiment can be described thus: In vitro cellular inhibitory activity, XTT method. Type of experiment: cell-based. The settings on record: Homo sapiens, A-431, 72 hours, read-out: in vitro cellular inhibitory activities on A431 IC50. The method, then:
as §1, §2, §3, §4, §5, §6, §7, §8, §9, §10, §11, §12, §13, §14, §15, §16, §17

In general, IC50 refers to the concentration that inhibits the measured activity by half.

T1 sequence (P04626 23-1255): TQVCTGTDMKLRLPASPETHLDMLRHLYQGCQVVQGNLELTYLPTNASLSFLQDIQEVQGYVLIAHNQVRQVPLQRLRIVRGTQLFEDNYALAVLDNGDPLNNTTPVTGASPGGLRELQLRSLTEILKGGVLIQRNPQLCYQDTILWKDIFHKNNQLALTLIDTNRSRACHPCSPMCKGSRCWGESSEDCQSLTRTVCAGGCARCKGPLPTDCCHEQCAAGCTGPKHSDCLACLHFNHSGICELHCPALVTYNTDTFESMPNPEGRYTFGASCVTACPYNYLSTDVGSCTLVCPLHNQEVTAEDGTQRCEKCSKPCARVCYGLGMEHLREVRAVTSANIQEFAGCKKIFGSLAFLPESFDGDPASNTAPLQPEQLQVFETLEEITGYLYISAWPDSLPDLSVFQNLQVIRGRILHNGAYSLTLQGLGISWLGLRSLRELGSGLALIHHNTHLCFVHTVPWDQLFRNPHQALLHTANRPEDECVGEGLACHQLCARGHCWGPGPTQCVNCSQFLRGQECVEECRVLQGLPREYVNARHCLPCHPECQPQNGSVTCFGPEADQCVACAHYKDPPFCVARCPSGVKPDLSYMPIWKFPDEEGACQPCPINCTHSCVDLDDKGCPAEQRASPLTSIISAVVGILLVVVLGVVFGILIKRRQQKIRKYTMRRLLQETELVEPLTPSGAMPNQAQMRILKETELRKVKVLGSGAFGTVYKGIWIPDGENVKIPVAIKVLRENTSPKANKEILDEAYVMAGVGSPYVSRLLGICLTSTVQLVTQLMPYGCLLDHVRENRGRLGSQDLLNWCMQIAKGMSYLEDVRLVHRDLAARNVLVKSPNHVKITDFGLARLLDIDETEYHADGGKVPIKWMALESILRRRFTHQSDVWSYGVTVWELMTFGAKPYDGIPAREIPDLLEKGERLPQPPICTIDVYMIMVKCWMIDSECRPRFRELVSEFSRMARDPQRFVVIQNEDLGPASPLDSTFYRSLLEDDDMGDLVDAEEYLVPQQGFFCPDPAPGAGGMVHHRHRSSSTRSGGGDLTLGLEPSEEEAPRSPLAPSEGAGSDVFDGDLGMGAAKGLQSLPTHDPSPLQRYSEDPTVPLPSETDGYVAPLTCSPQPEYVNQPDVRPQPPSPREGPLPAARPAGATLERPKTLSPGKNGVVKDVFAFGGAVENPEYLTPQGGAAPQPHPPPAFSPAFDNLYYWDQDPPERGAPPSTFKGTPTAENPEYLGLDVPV
T3 sequence (P00533 25-1210): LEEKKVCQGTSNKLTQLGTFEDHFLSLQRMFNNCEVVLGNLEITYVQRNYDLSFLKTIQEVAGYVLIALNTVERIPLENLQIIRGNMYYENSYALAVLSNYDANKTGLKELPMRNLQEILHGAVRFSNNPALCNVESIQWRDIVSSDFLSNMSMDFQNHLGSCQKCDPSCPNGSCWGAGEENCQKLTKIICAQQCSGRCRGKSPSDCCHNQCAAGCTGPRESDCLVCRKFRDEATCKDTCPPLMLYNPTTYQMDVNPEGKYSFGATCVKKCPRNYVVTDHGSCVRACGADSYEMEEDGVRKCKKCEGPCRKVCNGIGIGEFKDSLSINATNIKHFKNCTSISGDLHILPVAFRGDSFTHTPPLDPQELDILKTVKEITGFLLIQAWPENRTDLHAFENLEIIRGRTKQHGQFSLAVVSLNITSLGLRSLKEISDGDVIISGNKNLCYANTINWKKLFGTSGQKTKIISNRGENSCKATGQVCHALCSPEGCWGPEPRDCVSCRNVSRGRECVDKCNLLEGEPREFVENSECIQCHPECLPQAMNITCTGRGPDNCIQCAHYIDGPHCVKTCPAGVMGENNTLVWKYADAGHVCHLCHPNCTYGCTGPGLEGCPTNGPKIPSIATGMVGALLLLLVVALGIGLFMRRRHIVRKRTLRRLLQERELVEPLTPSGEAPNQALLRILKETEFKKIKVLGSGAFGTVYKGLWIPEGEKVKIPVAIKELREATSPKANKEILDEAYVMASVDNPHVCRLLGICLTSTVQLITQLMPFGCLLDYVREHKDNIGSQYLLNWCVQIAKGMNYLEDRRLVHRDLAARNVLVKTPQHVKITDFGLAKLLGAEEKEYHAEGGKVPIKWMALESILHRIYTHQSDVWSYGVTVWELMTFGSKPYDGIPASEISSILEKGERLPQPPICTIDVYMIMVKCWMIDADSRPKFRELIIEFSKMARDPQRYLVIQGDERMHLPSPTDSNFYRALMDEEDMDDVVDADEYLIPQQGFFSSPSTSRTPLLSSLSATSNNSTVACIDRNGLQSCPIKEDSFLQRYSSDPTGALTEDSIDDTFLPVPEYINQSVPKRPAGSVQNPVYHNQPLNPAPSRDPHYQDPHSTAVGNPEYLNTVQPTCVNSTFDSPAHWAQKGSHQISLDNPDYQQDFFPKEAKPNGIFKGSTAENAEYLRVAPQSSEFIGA
T2 sequence (Q15303 26-1308): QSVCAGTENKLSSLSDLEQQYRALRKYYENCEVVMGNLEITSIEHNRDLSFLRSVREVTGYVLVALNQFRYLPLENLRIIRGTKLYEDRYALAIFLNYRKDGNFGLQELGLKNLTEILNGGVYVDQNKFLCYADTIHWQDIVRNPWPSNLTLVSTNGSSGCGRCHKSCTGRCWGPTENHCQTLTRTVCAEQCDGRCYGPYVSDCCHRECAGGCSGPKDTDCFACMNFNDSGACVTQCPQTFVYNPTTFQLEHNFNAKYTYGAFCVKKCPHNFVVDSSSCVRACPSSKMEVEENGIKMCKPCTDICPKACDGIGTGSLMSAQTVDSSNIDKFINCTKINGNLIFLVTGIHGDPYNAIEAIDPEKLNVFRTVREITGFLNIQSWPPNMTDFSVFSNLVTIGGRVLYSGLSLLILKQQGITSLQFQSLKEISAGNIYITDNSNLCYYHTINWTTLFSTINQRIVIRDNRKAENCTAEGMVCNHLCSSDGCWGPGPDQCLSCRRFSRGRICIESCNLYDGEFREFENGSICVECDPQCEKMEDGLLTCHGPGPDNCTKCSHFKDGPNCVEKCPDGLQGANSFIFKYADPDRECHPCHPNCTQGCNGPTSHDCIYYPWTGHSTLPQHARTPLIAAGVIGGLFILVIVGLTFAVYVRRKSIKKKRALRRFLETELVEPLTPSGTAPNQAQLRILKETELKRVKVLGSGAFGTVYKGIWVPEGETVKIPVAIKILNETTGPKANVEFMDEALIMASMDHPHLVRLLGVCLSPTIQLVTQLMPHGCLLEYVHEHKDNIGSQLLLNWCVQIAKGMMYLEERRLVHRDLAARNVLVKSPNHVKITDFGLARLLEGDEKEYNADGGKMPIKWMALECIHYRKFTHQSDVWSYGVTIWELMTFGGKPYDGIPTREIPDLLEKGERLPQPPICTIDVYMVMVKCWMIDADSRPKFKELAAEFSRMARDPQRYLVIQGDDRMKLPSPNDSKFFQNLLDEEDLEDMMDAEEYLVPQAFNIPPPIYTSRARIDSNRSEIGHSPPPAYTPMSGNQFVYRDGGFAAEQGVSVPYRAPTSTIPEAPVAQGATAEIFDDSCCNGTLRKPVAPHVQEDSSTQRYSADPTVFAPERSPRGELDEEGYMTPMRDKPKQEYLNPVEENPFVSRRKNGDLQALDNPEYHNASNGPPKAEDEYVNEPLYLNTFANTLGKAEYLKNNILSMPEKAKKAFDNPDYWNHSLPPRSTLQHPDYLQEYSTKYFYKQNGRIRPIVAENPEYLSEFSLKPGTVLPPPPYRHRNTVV

For `COc1cc2ncnc(Nc3ccc(F)c(Cl)c3)c2cc1NC(=O)/C=C/CN1CCC2(CCC2)C1` [Compound 27, (E)-N-[4-(3-chloro-4-fluorophenylamino)-7-methoxyquinazolin-6-yl]-4-[6-azaspiro[3.4]octan-6-yl]-2-butenamide], the values for the half-maximal inhibitory concentration (IC50) in experiment [1] and in experiment [2] were 91.9 nM and 3190 nM, respectively.

`COc1cc2ncnc(Nc3ccc(F)c(Cl)c3)c2cc1NC(=O)/C=C/CN1CC2(CCCC2)C1` [Compound 14, (E)-N-[4-(3-chloro-4-fluorophenylamino)-7-methoxyquinazolin-6-yl]-4-(2-azaspiro[3.4]octan-2-yl)-2-butenamide]: the half-inhibitory concentration (IC50) in experiment [1] was found to be 134 nM; in experiment [2], 3710 nM.

Turning to `COc1cc2ncnc(Nc3ccc(F)c(Cl)c3)c2cc1NC(=O)/C=C/CN1CC2CC2C1` (stereo not drawn) [Compound 1, (E)-4-[3-azabicyclo[3.1.0]hexan-3-yl]-N-[4-(3-chloro-4-fluorophenylamino)-7-methoxyquinazolin-6-yl]-2-butenamide], the half-maximal inhibitory concentration (IC50) in experiment [3] was determined as 14 nM; in experiment [4] it was 3.1 nM; in experiment [5], 0.55 nM.

With `COc1cc2ncnc(Nc3ccc(F)c(Cl)c3)c2cc1NC(=O)/C=C/CN1CC2(CCCCC2)C1` [Compound 15, (E)-N-[4-(3-chloro-4-fluorophenylamino)-7-methoxyquinazolin-6-yl]-4-(2-azaspiro[3.5]nonan-2-yl)-2-butenamide], the IC50 in experiment [1] came out at 179 nM; in experiment [2], 3640 nM.

In the case of `COc1cc2ncnc(Nc3ccc(F)c(Cl)c3)c2cc1NC(=O)/C=C/CN1CCCCC1` [PF-00299804, reference compound], the concentration for half-maximal inhibition (IC50) in experiment [1] is 356 nM; in experiment [2] it was 3960 nM; in experiment [6], 548 nM.

For the molecule `COc1cc2ncnc(Nc3ccc(F)c(Cl)c3)c2cc1NC(=O)/C=C/CN1CC2(CCC2)C1` [Compound 2], the IC50 in experiment [1] turned out to be 148 nM; in experiment [2], 3220 nM; in experiment [6], 33.3 nM; in experiment [3], 19 nM; in experiment [4], 8.9 nM; in experiment [5], 0.65 nM.

On to `COc1cc2ncnc(Nc3ccc(F)c(Cl)c3)c2cc1NC(=O)/C=C/CN1CCC2(CC1)CC2` [Compound 30, (E)-N-[4-(3-chloro-4-fluorophenylamino)-7-methoxyquinazolin-6-yl]-4-(6-azaspiro[2.5]octan-6-yl)-2-butenamide], for which the IC50 in experiment [2] stood at 3350 nM.

As for `COc1cc2ncnc(Nc3ccc(F)c(Cl)c3)c2cc1NC(=O)/C=C/CN1CCCC2(COC2)C1` [Compound 28, (E)-N-[4-(3-chloro-4-fluorophenylamino)-7-methoxyquinazolin-6-yl]-4-[2-oxa-6-azaspiro[3.5]nonan-6-yl]-2-butenamide], in experiment [1], the IC50 amounted to 39 nM.

Turning to `COc1cc2ncnc(Nc3ccc(F)c(Cl)c3)c2cc1NC(=O)/C=C/CN1CCC2(CCC2)CC1` [Compound 17, (E)-N-[4-(3-chloro-4-fluorophenylamino)-7-methoxyquinazolin-6-yl]-4-(7-azaspiro[3.5]nonan-7-yl)-2-butenamide], the IC50 in experiment [2] is 3060 nM.

For `COc1cc2ncnc(Nc3ccc(F)c(Cl)c3)c2cc1NC(=O)/C=C/CN1CCC2(CC2)C1` [Compound 26, (E)-N-[4-(3-chloro-4-fluorophenylamino)-7-methoxyquinazolin-6-yl]-4-(5-azaspiro[2.4]heptan-5-yl)-2-butenamide], the IC50 in experiment [1] was determined as 85.6 nM; in experiment [2], 3070 nM.

As to `COc1cc2ncnc(Nc3ccc(F)c(Cl)c3)c2cc1NC(=O)/C=C/CN1CCC2(CC1)COC2` [Compound 29, (E)-N-[4-(3-chloro-4-fluorophenylamino)-7-methoxyquinazolin-6-yl]-4-(2-oxa-7-azaspiro[3.5]nonan-7-yl)-2-butenamide], in experiment [1], the IC50 came out at 57.1 nM.

(Values after patent US9956222B2, “Quinazoline derivative as tyrosine-kinase inhibitor, preparation method therefor and application thereof” (Xuanzhu Pharma Co., Ltd., priority 2011, dated 2018).)
